Reference: publication PMC4041848, “Differential Effects of Omeprazole and Lansoprazole Enantiomers on Aryl Hydrocarbon Receptor in Human Hepatocytes and Cell Lines” (PLoS ONE, 2014)

Key:
[1] = tested on: CYP1A2 protein; experiment: CYP1A2 protein induction in primary human hepatocytes (western blot); settings: 10 µM
Source text: (§1) Primary human hepatocytes used in this study were obtained from two sources: (i) from multiorgan donor HH52; the use of liver cells of donor HH52 was approved by “Ethical committee at the Faculty Hospital Olomouc”,and it was in accordance with Transplantation law #285/2002 Sb; “Ethical committee at the Faculty Hospital Olomouc” waived the authors from obtaining consent from the next of kin, regarding human hepatocytes obtained from liver donor HH52. (ii) long-term human hepatocytes in monolayer Batch HEP220770 (person), Batch HEP220774 (person) were purchased from Biopredic International (Biopredic International, Rennes, France). Cells were cultured in serum-free medium. Cultures were maintained at 37°C and 5% CO2 in a humidified incubator.
Total protein extracts were prepared from cells cultured on 6-well plates. Cells were washed twice with ice-cold PBS and scraped into 1 ml of PBS. The suspension was centrifuged (4500 RPM/5 min/4°C) and the pellet was resuspended in 150 µl of ice-cold lysis buffer (150 mM NaCl; 10 mM Tris pH 7.2; 0.1% (w/v) SDS; anti-protease cocktail, 1% (v/v) Triton X-100; anti-phosphatase cocktail, 1% (v/v) sodium deoxycholate; 5 mM EDTA). […] Supernatant was collected and the protein content was determined by the Bradford reagent. […] The density of bands was measured by densitometry. […]
Figure 3 Effects of omeprazole and lansoprazole enantiomers on CYP1A1 mRNA, protein and EROD activity in primary human hepatocytes. […] RT-PCR data are the mean ± SD from triplicate measurements and are expressed as fold induction over vehicle-treated cells. […] Density of bands in western blots was quantified by densitometry and the values are indicated along with respective blots. […] Upper bar graph: An activity of 7-ethoxyresorufin- O-deethylase (EROD) was measured by fluorescent spectrophotometry with 530 nm excitation and 590 nm emission filters. […] The data are expressed as fold induction over the value from control cells. Lower bar graph: A conventional MTT test was performed and absorbance was measured at 540 nm. […] The data are expressed as percentage of viability of control cells.

[2] = tested on: CYP1A1 mRNA; experiment: CYP1A1 mRNA induction in primary human hepatocytes (qRT-PCR); settings: 100 µM
Source text: as §1
(§2) Total RNA was isolated using TRI Reagent (Molecular Research Center, Cincinnati, OH, USA). cDNA was synthesized from 1000 ng of total RNA using M-MLV Reverse Transcriptase (Finnzymes, Espoo, Finland) at 42°C for 60 min in the presence of random hexamers (Takara, Shiga, Japan). qRT-PCR was carried out using LightCycler FastStart DNA MasterPLUS SYBR Green I (Roche Diagnostic Corporation, Prague, Czech Republic) on a Light Cycler 480 II apparatus (Roche Diagnostic Corporation). CYP1A1, CYP1A2 and GAPDH mRNAs were determined as described previously. Measurements were performed in triplicates. Gene expression was normalized to GAPDH as a housekeeping gene.
We examined a capability of omeprazole and lansoprazole to induce CYP1A1 and CYP1A2 mRNA and protein in primary human hepatocytes, which is a more physiological and metabolically competent cell model. Human hepatocytes were treated for 24 h or 48 h with TCDD (5 nM), vehicle (DMSO; 0.1% V/V) and tested compounds.
Figure 3 Effects of omeprazole and lansoprazole enantiomers on CYP1A1 mRNA, protein and EROD activity in primary human hepatocytes. Panel A and Panel B: RT-PCR analyses of CYP1A1 and CYP1A2 mRNA and western blots of CYP1A1 and CYP1A2 from two different cultures (HH52 and Hep220770) are shown. Human hepatocytes were incubated for 24 h (mRNA analysis) or 48 (protein analysis) with S-OME, R-OME, rac-OME, S-LAN, R-LAN, rac-LAN, TCDD and vehicle (DMSO; 0.1% v/v). RT-PCR data are the mean ± SD from triplicate measurements and are expressed as fold induction over vehicle-treated cells. Data were normalized to GAPDH mRNA levels. Density of bands in western blots was quantified by densitometry and the values are indicated along with respective blots. Panel C: EROD and cytotoxicity: Human hepatocytes (culture Hep220774) were treated for 24 h with S-OME, R-OME, rac-OME, S-LAN, R-LAN, rac-LAN, TCDD and vehicle (DMSO; 0.1% v/v). Upper bar graph: An activity of 7-ethoxyresorufin- O-deethylase (EROD) was measured by fluorescent spectrophotometry with 530 nm excitation and 590 nm emission filters. Treatments were performed in triplicates. The data are expressed as fold induction over the value from control cells. Lower bar graph: A conventional MTT test was performed and absorbance was measured at 540 nm. Treatments were performed in triplicates. The data are expressed as percentage of viability of control cells.

[3] = tested on: CYP1A1 mRNA; settings: HepG2, 24 h, 100 µM
Description: as §2
Treatments were performed in triplicates.

[4] = parameters: method as in PMID 8710755, PMID 19298580; settings: after oral administration of racemic drug; ref [8], [9]; cited from earlier work
[5] = MTT cytotoxicity test in AZ-AHR reporter cells; settings: human
Description: (§3) A stably transfected gene reporter cell line AZ-AHR, derived from human hepatoma HepG2 cells transfected with a construct containing several AhR binding sites upstream of a luciferase reporter gene, was used for assessment of AhR transcriptional activity. Cells were incubated for 24 h with tested compounds and/or vehicle (DMSO; 0.1% v/v), in the presence or absence of TCDD (10 nM; AZ-AHR cells) or DEX (100 nM; AZ-GR cells). After the treatments, cells were lysed and luciferase activity was measured. In parallel, cell viability was determined by conventional MTT test.
(§4) In the first series of experiments, the cytotoxicity of tested compounds was assessed in gene reporter cell line AZ-AHR. For this purpose, the cells were incubated for 24 h with S-OME, R-OME, rac-OME, S-LAN, R-LAN and rac-LAN at concentration ranging from 100 pM to 250 µM. The vehicle was DMSO (0.1% v/v). After the treatment, a conventional MTT test was performed.
(§5) Figure 1 Effect of omeprazole and lansoprazole enantiomers on transcriptional activity of aryl hydrocarbon receptor AhR in human gene reporter cell line AZ-AHR. The cells were seeded in 96-well plates and stabilized for 16 h. Panels A and B: Cells were incubated for 24 h with S-OME, R-OME, rac-OME, S-LAN, R-LAN and rac-LAN at concentrations ranging from 10^−10 M to 10^−4 M. The vehicle was DMSO (0.1% v/v). After the treatment, MTT test was performed and absorbance was measured at 540 nm. Treatments were performed in triplicates. The data are the mean from experiments from six different passages of cells and are expressed as a percentage of viability of control cells. The values of IC50 were calculated and are indicated in a figure. Panels C - F: AZ-AHR cells were incubated for 24 h with S-OME, R-OME, rac-OME, S-LAN, R-LAN and rac-LAN at concentrations ranging from 10^−10 M to 10^−4 M in the absence (Panels C and D - agonist mode) or in the presence (Panels E and F- antagonist mode) of TCDD (5 nM). The vehicle was DMSO (0.1% v/v). After the treatments, cells were lysed and luciferase activity was measured. Treatments were performed in triplicates in five (agonist mode) or four (antagonist mode) independent cell passages. […] Data are expressed as a fold induction of luciferase activity over control cells (Panels C and D - agonist mode) or as a percentage of maximal induction attained by TCDD (Panels E and F- antagonist mode).

[6] = tested on: CYP1A2 mRNA; experiment: CYP1A2 mRNA induction in primary human hepatocytes (qRT-PCR); settings: hepatocyte culture Hep220770, 24 h
Source text: as §1
as §2, with “Gene expression was normalized to GAPDH as a housekeeping gene.” left out

[7] = tested on: aryl hydrocarbon receptor AhR; experiment: AhR gene reporter assay, agonist mode; settings: for AhR agonist efficacy: AZ-AHR cells, 24 h, compared to 5 nM TCDD, calculated at 100 µM compound (stated for omeprazole); for EC50 at 24 h: human
Description: as §3, §5
Gene reporter assays were performed in two different experimental layouts. […] In antagonist mode, cells were incubated with increasing concentrations of tested compounds in combination with model agonist (TCDD; 5 nM), and half-maximal inhibitory concentrations (IC50) were calculated. […] The efficacy was calculated at concentration of compounds of 100 µM and compared to 5 nM TCDD (Figure 1C).

[8] = tested on: primary human hepatocytes; experiment: MTT cytotoxicity test in primary human hepatocytes; settings: 100 µM
Description: (§6) Figure 3 Effects of omeprazole and lansoprazole enantiomers on CYP1A1 mRNA, protein and EROD activity in primary human hepatocytes. Panel A and Panel B: RT-PCR analyses of CYP1A1 and CYP1A2 mRNA and western blots of CYP1A1 and CYP1A2 from two different cultures (HH52 and Hep220770) are shown. Human hepatocytes were incubated for 24 h (mRNA analysis) or 48 (protein analysis) with S-OME, R-OME, rac-OME, S-LAN, R-LAN, rac-LAN, TCDD and vehicle (DMSO; 0.1% v/v). RT-PCR data are the mean ± SD from triplicate measurements and are expressed as fold induction over vehicle-treated cells. Data were normalized to GAPDH mRNA levels. Density of bands in western blots was quantified by densitometry and the values are indicated along with respective blots. Panel C: EROD and cytotoxicity: Human hepatocytes (culture Hep220774) were treated for 24 h with S-OME, R-OME, rac-OME, S-LAN, R-LAN, rac-LAN, TCDD and vehicle (DMSO; 0.1% v/v). Upper bar graph: An activity of 7-ethoxyresorufin- O-deethylase (EROD) was measured by fluorescent spectrophotometry with 530 nm excitation and 590 nm emission filters. Treatments were performed in triplicates. The data are expressed as fold induction over the value from control cells. Lower bar graph: A conventional MTT test was performed and absorbance was measured at 540 nm. […] The data are expressed as percentage of viability of control cells. […]

[9] = tested on: AZ-AHR cells; experiment: MTT cytotoxicity test in AZ-AHR reporter cells
Description: as §3, §4, §5

[10] = MTT cytotoxicity test in primary human hepatocytes; settings: female, human, primary human hepatocytes, culture Hep220774
Description: as §6

[11] = hepatocyte culture Hep220770, 24 h

Row | SMILES | CYP1A2 protein induction ([1]; hepatocyte culture HH52, 48 h) | CYP1A1 mRNA induction ([2]; hepatocyte culture HH52, 24 h) | CYP1A1 mRNA induction [2, 11] | CYP1A1 mRNA induction relative to S-LAN [3] | CYP1A1 mRNA induction relative to rac-LAN [3] | share of circulating drug [4] | systemic exposure relative to the S-enantiomer [4] | IC50 at 24 h [5] | effect on CYP1A2 mRNA relative to S-LAN [6] | AhR agonist efficacy [7] | EC50 at 24 h [7] | viability of the cells [8] | IC50 [9] | EC50 [7] | viability at 24 h, 250 µM [10] | CYP1A2 protein induction ([1]; both hepatocyte cultures (HH52, Hep220770), 48 h) | cytotoxicity ([9]; AZ-AHR cells, 24 h, MTT, concentrations up to 250 µM)
1 | Cc1c(OCC(F)(F)F)ccnc1C[S@@+]([O-])c1nc2ccccc2[nH]1 [R-LAN, R-lansoprazole] | strong induction | 17 % of TCDD induction | 575 fold | four times stronger | two times stronger | more than 80% | 5 fold | > 250 µM | two times stronger | 23.0±10.0% | 5.7 ± 2.9 µM | – | – | – | – | – | –
2 | Cc1c(OCC(F)(F)F)ccnc1C[S@+]([O-])c1nc2ccccc2[nH]1 [S-LAN, S-lansoprazole] | strong induction | – | – | – | – | – | – | – | – | 26.3±8.7% | – | 64% | 169 µM | 1.9 ± 0.3 µM | – | – | –
3 | COc1ccc2nc([S@@+]([O-])Cc3ncc(C)c(OC)c3C)[nH]c2c1 [S-OME, S-omeprazole] | – | – | 736 fold | – | – | – | – | > 250 µM | – | 44.8±11.8% | 22.9 ± 7.9 µM | – | – | – | 60% | strongly induced | not cytotoxic
